From patent US11173166B2, “Composition and uses thereof” (BH Biotech Pty Ltd, priority 2017, dated 2021) come the findings set out here.

Some results are limits rather than exact numbers.

The target of one data set is NLRP3 inflammasome (Homo sapiens, UniProt Q96P20). Kind of data set: THP-1 NLRP3 inflammasome assay (LPS priming plus ATP stimulation, IL-1β ELISA), with Chou-Talalay CI analysis. As to conditions: for inhibition of NLRP3 inflammasome activation (IL-1β production), in words: single agent, THP-1 primed with LPS, stimulated with ATP.
Sequence of NLRP3 inflammasome (Q96P20 whole entry): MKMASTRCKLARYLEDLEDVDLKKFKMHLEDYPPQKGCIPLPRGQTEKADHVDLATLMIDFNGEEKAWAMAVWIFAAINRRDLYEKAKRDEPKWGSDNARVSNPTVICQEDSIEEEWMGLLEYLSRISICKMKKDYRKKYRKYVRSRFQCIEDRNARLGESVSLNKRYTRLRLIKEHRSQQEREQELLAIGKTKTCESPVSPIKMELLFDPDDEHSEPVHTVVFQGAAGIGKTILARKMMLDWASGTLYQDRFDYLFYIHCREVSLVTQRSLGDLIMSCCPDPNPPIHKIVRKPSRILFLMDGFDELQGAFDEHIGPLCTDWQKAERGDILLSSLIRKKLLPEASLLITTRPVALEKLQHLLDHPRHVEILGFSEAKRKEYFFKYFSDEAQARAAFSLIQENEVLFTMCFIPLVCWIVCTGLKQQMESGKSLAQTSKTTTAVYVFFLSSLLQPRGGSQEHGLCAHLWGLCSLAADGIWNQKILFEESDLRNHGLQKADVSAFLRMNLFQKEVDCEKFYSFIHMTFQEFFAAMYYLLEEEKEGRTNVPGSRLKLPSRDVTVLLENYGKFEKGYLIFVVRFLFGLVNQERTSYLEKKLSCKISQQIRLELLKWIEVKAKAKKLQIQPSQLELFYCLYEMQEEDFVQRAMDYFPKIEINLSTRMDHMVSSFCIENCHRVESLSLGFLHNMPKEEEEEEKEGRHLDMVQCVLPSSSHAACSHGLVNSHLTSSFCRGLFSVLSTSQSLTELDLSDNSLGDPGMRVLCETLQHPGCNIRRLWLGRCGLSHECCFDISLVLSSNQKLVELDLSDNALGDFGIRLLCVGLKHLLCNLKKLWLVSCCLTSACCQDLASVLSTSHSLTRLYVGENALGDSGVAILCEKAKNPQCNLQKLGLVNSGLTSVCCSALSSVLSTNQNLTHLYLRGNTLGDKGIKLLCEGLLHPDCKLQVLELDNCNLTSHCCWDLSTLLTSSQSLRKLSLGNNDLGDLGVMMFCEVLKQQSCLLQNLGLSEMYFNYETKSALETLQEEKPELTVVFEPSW
The nature of data set [1]: Solubility behaviour in the cell-based assay system / aqueous solution.
Excerpt: The interaction between ashwagandha and turmeric plant extracts was studied. […] To overcome this experimental limitation low doses at approximately the Fa 0.2 range were focused on, and the mean relative inhibition values of the single extract versus the ashwagandha plus turmeric plant extract combination were compared.
The combination of turmeric and pepper (Piper nigrum) plant extracts was investigated.

Description for NLRP3 inflammasome: Absorbance data obtained from the ELISA assays was transformed into relative inhibition using Microsoft Excel. Dose-response curves and statistical analyses were generated using GraphPad Prism software. To generate dose-response curves, first the dose was transformed into Log10, then curves were generated using the non-linear regression option log[inhibitor] vs response-variable slope (four parameter). Statistical comparisons between treatment and control groups were performed using One Way ANOVA with GraphPad Prism statistical software.
The latest version of CompuSyn software was used to analyse data and generate CI and graphical representations of drug-drug interactions.
Monocytes were first primed for three hours with 100 nM LPS, then stimulated with ATP.

Consider `O=C(/C=C/C=C/c1ccc2c(c1)OCO2)N1CCCCC1` [piperine], for which the “inflammasome inhibition, highest observed” value on NLRP3 inflammasome (limited because compound came out of solution at higher doses) is at most 35%. In data set [1], the solubility behaviour entry is given as “came out of solution at the higher doses”.

Regarding `COc1cc(C2Oc3cc([C@H]4Oc5cc(O)cc(O)c5C(=O)[C@@H]4O)ccc3OC2CO)ccc1O` (stereo partly drawn) [silybin], at NLRP3 inflammasome (combined with withaferin A, curcumin and piperine), the “interaction in drug combination experiments (polynonogram)” value is “striking antagonism”. Moreover, at NLRP3 inflammasome, the “inhibition of NLRP3 inflammasome activation (IL-1β production), in words” value was “effectively inhibiting inflammation”.

With `CC1=C(CO)C(=O)O[C@@H]([C@@H](C)[C@H]2CC[C@H]3[C@@H]4C[C@H]5O[C@]56[C@@H](O)C=CC(=O)[C@]6(C)[C@H]4CC[C@]23C)C1` [withaferin A], the “efficacy relative to vehicle control (ANOVA)” value on NLRP3 inflammasome (low dose: below Fa 0.4 for pure compounds, approximately Fa 0.2 for extracts) was “efficacious relative to vehicle control”. For the same compound, on NLRP3 inflammasome, the “inhibition of NLRP3 inflammasome activation (IL-1β production), in words” value is recorded as “inhibit NLRP3 inflammasome activity”.
